The values that follow come from article PMC6054628.

Data set [1] is described as follows: Head-to-tail native chemical ligation in two-module microfluidic flow: SEAon peptide amide rearranged to SEAE thioester (pH 1, TCEP, 60 min, 90 or 65 C), then MPAA (0.4 M)/Na2HPO4 (0.2 M) pH 7.3 cyclisation onto N-terminal Cys. The note with it: 30-membered ring, water (phosphate buffer, MPAA, TCEP; decane segmented carrier; 6 M Gn.HCl for 4l-p), 0.6 mM, 37.0 °C, 0.067 h, 2 steps.

Data set [2] is described as follows: Head-to-tail native chemical ligation in two-module microfluidic flow: SEAon peptide amide rearranged to SEAE thioester (pH 1, TCEP, 60 min, 90 or 65 C), then MPAA (0.4 M)/Na2HPO4 (0.2 M) pH 7.3 cyclisation onto N-terminal Cys, 4 min. The note with it: 30-membered ring, water (phosphate buffer, MPAA, TCEP; decane segmented carrier), 0.6 mM, 37.0 °C, 0.067 h, 2 steps, scale: %.

Where [3] appears, read: from CC[C@H](C)[C@H](NC(=O)[C@@H](N)CS)C(=O)N[C@@H](CC(C)C)C(=O)N[C@@H](CC(N)=O)C(=O)NCC(=O)N1CCC[C@H]1C(=O)N[C@H](C(=O)N[C@@H](Cc1c[nH]cn1)C(=O)NCC(=O)N[C@@H](CC(C)C)C(=O)SCCNCCS)C(C)C.
Where [4] appears, read: from CC[C@H](C)[C@H](NC(=O)[C@@H](N)CS)C(=O)N[C@@H](CC(C)C)C(=O)N[C@@H](CC(=O)O)C(=O)NCC(=O)N1CCC[C@H]1C(=O)N[C@H](C(=O)N[C@@H](Cc1c[nH]cn1)C(=O)NCC(=O)N[C@H](C(=O)SCCNCCS)C(C)C)C(C)C.

In data set [1] (setting [3]), `CC[C@H](C)[C@@H]1NC(=O)[C@H](CS)NC(=O)[C@H](CC(C)C)NC(=O)CNC(=O)[C@H](Cc2c[nH]cn2)NC(=O)[C@H](C(C)C)NC(=O)[C@@H]2CCCN2C(=O)CNC(=O)[C@H](CC(N)=O)NC(=O)[C@H](CC(C)C)NC1=O` [H-CILNGPVHGL-SEAon (via SEAE thioester)] came in with a ring closure, yield over several steps of 80%. The same molecule showed a ring closure, conversion by HPLC in data set [2] (setting [3]) of 85.

The molecule `CC[C@H](C)[C@@H]1NC(=O)[C@H](CS)NC(=O)[C@H](C(C)C)NC(=O)CNC(=O)[C@H](Cc2c[nH]cn2)NC(=O)[C@H](C(C)C)NC(=O)[C@@H]2CCCN2C(=O)CNC(=O)[C@H](CC(=O)O)NC(=O)[C@H](CC(C)C)NC1=O` [H-CILDGPVHGV-SEAon (via SEAE thioester)] displayed a ring closure, yield over several steps in data set [1] (setting [4]) of 37%. The molecule further had a ring closure, conversion by HPLC in data set [2] (setting [4]) of 43.
